Patent publication US9458198B1, “Cyclic peptide-based NPR-B agonists” (priority 2009, dated 2016)
Where two headings read alike, the source gives them in different places. Where a SMILES comes first, the peptide text is derived from it. Bridges are numbered along the chain shown (N, C = ends).

Molecular target: T1, NPR-B (Homo sapiens, UniProt P20594)
T1 construct: a functional assay using endogenously NPR-B expressing GTM-3 cells; endogenous in cells; host or cells: GTM-3 (transformed human trabecular meshwork cells)
T1 sequence (P20594 23-1047): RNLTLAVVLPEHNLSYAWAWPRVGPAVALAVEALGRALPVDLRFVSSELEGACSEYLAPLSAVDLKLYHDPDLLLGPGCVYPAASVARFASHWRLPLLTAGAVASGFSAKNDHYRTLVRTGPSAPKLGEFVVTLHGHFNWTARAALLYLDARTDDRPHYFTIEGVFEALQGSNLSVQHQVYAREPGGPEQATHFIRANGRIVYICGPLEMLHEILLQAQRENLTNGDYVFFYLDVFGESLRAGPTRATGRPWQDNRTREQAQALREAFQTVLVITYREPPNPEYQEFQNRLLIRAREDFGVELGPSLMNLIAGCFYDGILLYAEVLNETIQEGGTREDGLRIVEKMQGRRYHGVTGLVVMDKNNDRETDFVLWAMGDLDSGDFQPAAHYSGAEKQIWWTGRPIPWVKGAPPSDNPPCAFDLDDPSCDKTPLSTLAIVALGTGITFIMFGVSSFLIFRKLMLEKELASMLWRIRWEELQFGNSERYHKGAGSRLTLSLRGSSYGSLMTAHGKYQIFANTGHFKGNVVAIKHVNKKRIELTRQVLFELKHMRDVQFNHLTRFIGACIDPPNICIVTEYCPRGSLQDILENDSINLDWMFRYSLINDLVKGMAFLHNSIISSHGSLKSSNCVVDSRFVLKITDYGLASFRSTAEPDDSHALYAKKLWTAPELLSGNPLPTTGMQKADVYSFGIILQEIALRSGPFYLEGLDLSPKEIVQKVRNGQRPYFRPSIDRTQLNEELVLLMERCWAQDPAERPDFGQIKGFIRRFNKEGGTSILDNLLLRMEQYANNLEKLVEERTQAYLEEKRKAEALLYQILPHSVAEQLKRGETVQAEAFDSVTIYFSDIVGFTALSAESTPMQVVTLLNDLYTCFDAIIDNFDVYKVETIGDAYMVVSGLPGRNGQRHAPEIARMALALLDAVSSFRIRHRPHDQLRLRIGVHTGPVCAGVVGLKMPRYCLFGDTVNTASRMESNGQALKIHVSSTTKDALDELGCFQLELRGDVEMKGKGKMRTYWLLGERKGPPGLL
Assay: NPR-B induced production of cyclic GMP in GTM-3 cells
Assay type: cell-based
Conditions: GTM-3 cells, group needs both EC50 and Emax criteria, checked A then B then C
Experimental: The efficacy and potency of compounds to activate NPR-B were evaluated in a functional assay using endogenously NPR-B expressing GTM-3 cells (Pang et al. 1994, Curr Eye Res 13:51-63). In this assay the dose dependent production of cyclic GMP (cGMP) is determined and Emax (maximum activation) and EC50 values are calculated.
The cell culture medium is aspirated and each well is washed with 200 μl DMEM/Ham's F12=Medium (Gibco). Then, 200 μl Medium supplemented with 1 mM IBMX (3-Isobutyl-1-methyl-xanthin, Sigma) is added to each well and incubated for 15 min. at room temperature.
Final compound concentrations are in the range from 45 μM to 20 nM.

[1] = read-out: Activity (group): NPR-B activation, EC50 and Emax (CNP = 100%)

| SMILES | EC50 [1] | EC50 (Activity (group): NPR-B activation, EC50 and Emax (CNP = 100%)) |
| --- | --- | --- |
| CC[C@H](C)[C@@H]1NC(=O)[C@H](CCCNC(=N)N)NC(=O)[C@H](CC(=O)O)NC(=O)[C@H](CC(C)C)NC(=O)[C@H](CCCCN)NC(=O)[C@H](CC(C)C)NC(=O)CNC(=O)[C@H](Cc2ccccc2)NC(=O)[C@H](Cc2c[nH]cn2)NC(=O)[C@@H](NC(=O)[C@@H](N)CCSC)CSSC[C@@H](C(=O)N[C@@H](Cc2ccc(O)cc2)C(=O)N[C@@H](CCCNC(=N)N)C(N)=O)NC(=O)[C@H](CO)NC1=O [compound 5] (H-MCHFGLKLDRISCYR-NH2; disulfide 2-13) | < 5 µM | – |
| CC[C@H](C)[C@@H]1NC(=O)[C@H](CCCNC(=N)N)NC(=O)[C@H](CC(=O)O)NC(=O)[C@H](CC(C)C)NC(=O)[C@H](CCCCN)NC(=O)[C@H](CC(C)C)NC(=O)CNC(=O)[C@H](Cc2ccccc2)NC(=O)[C@H](Cc2c[nH]cn2)NC(=O)[C@@H](NC(=O)[C@@H](N)CCSC)CSSC[C@@H](C(=O)N[C@@H](Cc2ccc(O)cc2)C(N)=O)NC(=O)[C@H](CO)NC1=O [compound 6] (H-MCHFGLKLDRISCY-NH2; disulfide 2-13) | < 5 µM | – |
| CC[C@H](C)[C@@H]1NC(=O)[C@H](CCCNC(=N)N)NC(=O)[C@H](CC(=O)O)NC(=O)[C@H](CC(C)C)NC(=O)[C@H](CCCCN)NC(=O)[C@H](CC(C)C)NC(=O)CNC(=O)[C@H](Cc2ccccc2)NC(=O)[C@H](Cc2c[nH]cn2)NC(=O)[C@@H](NC(=O)[C@@H](N)CCSC)CSSC[C@@H](C(N)=O)NC(=O)[C@H](CO)NC1=O [compound 7] | < 5 µM | – |
| CC[C@H](C)[C@@H]1NC(=O)[C@H](CCCNC(=N)N)NC(=O)[C@H](CC(=O)O)NC(=O)[C@H](CC(C)C)NC(=O)[C@H](CCCCN)NC(=O)[C@H](CC(C)C)NC(=O)CNC(=O)[C@H](Cc2ccccc2)NC(=O)[C@H](C)NC(=O)[C@@H](NC(=O)[C@@H](N)CCSC)CSSC[C@@H](C(N)=O)NC(=O)[C@H](CO)NC1=O [compound 8] | < 5 µM | – |
| CC[C@H](C)[C@@H]1NC(=O)[C@H](CCCNC(=N)N)NC(=O)[C@H](CC(=O)O)NC(=O)[C@H](CC(C)C)NC(=O)[C@H](CCCCN)NC(=O)[C@H](C)NC(=O)CNC(=O)[C@H](Cc2ccccc2)NC(=O)[C@H](Cc2c[nH]cn2)NC(=O)[C@@H](NC(=O)[C@@H](N)CCSC)CSSC[C@@H](C(N)=O)NC(=O)[C@H](CO)NC1=O [compound 9] (H-MCHFGAKLDRISC-NH2; disulfide 2-13) | < 15 µM | – |
| CC[C@H](C)[C@@H]1NC(=O)[C@H](CCCNC(=N)N)NC(=O)[C@H](CC(=O)O)NC(=O)[C@H](CC(C)C)NC(=O)[C@H](CCCCN)NC(=O)[C@H](CC(C)C)NC(=O)CNC(=O)[C@H](Cc2ccccc2)NC(=O)[C@H](Cc2c[nH]cn2)NC(=O)[C@@H](NC(=O)[C@H](N)CCSC)CSSC[C@@H](C(N)=O)NC(=O)[C@H](CO)NC1=O [compound 10] | < 5 µM | – |
| CC[C@H](C)[C@@H]1NC(=O)[C@H](CCCNC(=N)N)NC(=O)[C@H](CC(=O)O)NC(=O)[C@H](CC(C)C)NC(=O)[C@H](CCCCN)NC(=O)[C@H](CC(C)C)NC(=O)CNC(=O)[C@H](Cc2ccccc2)NC(=O)[C@H](Cc2c[nH]cn2)NC(=O)[C@H](NC(=O)[C@@H](N)CCSC)CSSC[C@@H](C(N)=O)NC(=O)[C@H](CO)NC1=O [compound 11] | < 15 µM | – |
| CC[C@H](C)[C@@H]1NC(=O)[C@H](CCCNC(=N)N)NC(=O)[C@H](CC(=O)O)NC(=O)[C@H](CC(C)C)NC(=O)[C@H](CCCCN)NC(=O)[C@H](CC(C)C)NC(=O)CNC(=O)[C@H](Cc2ccccc2)NC(=O)[C@@H](Cc2c[nH]cn2)NC(=O)[C@@H](NC(=O)[C@@H](N)CCSC)CSSC[C@@H](C(N)=O)NC(=O)[C@H](CO)NC1=O [compound 12] | < 5 µM | – |
| CC[C@H](C)[C@@H]1NC(=O)[C@H](CCCNC(=N)N)NC(=O)[C@H](CC(=O)O)NC(=O)[C@H](CC(C)C)NC(=O)[C@H](CCCCN)NC(=O)[C@H](CC(C)C)NC(=O)CNC(=O)[C@H](Cc2ccccc2)NC(=O)[C@H](Cc2c[nH]cn2)NC(=O)[C@H](NC(=O)[C@@H](N)CCSC)CSSC[C@H](C(N)=O)NC(=O)[C@H](CO)NC1=O [compound 13] | < 15 µM | – |
| CC[C@H](C)[C@@H]1NC(=O)[C@H](CCCNC(=N)N)NC(=O)[C@H](CC(=O)O)NC(=O)[C@H](CC(C)C)NC(=O)[C@H](CCCCN)NC(=O)[C@H](CC(C)C)NC(=O)CNC(=O)[C@H](Cc2ccccc2)NC(=O)[C@H](Cc2c[nH]cn2)NC(=O)[C@@H](NC(=O)[C@@H](N)CCSC)CSSC[C@@H](C(=O)O)NC(=O)[C@H](CO)NC1=O [compound 15] | < 15 µM | – |
| CCCC[C@H](N)C(=O)N[C@H]1CSSC[C@@H](C(N)=O)NC(=O)[C@H](CO)NC(=O)[C@H]([C@@H](C)CC)NC(=O)[C@H](CCCNC(=N)N)NC(=O)[C@H](CC(=O)O)NC(=O)[C@H](CC(C)C)NC(=O)[C@H](CCCCN)NC(=O)[C@H](CC(C)C)NC(=O)CNC(=O)[C@H](Cc2ccccc2)NC(=O)[C@H](Cc2c[nH]cn2)NC1=O [compound 16] | < 15 µM | – |
| CC[C@H](C)[C@@H]1NC(=O)[C@H](CCCNC(=N)N)NC(=O)[C@H](CC(=O)O)NC(=O)[C@H](CC(C)C)NC(=O)[C@H](CCCCN)NC(=O)[C@H](CC(C)C)NC(=O)CNC(=O)[C@H](Cc2ccccc2)NC(=O)CNC(=O)[C@@H](NC(=O)[C@@H](N)CCSC)CSSC[C@@H](C(N)=O)NC(=O)[C@H](CO)NC1=O [compound 17] | < 5 µM | – |
| CC[C@H](C)[C@@H]1NC(=O)[C@H](CCCNC(=N)N)NC(=O)[C@H](CC(=O)O)NC(=O)[C@H](CC(C)C)NC(=O)[C@H](CCCCN)NC(=O)[C@H](CC(C)C)NC(=O)CNC(=O)[C@H](Cc2ccccc2)NC(=O)[C@H](CO)NC(=O)[C@@H](NC(=O)[C@@H](N)CCSC)CSSC[C@@H](C(N)=O)NC(=O)[C@H](CO)NC1=O [compound 18] | < 5 µM | – |
| CC[C@H](C)[C@@H]1NC(=O)[C@H](CCCNC(=N)N)NC(=O)[C@H](CC(=O)O)NC(=O)[C@H](CC(C)C)NC(=O)[C@H](CCCCN)NC(=O)[C@H](CC(=O)O)NC(=O)CNC(=O)[C@H](Cc2ccccc2)NC(=O)[C@H](Cc2c[nH]cn2)NC(=O)[C@@H](NC(=O)[C@@H](N)CCSC)CSSC[C@@H](C(N)=O)NC(=O)[C@H](CO)NC1=O [compound 19] (H-MCHFGDKLDRISC-NH2; disulfide 2-13) | < 5 µM | – |
| CC[C@H](C)[C@@H]1NC(=O)[C@H](CCCNC(=N)N)NC(=O)[C@H](CC(=O)O)NC(=O)[C@H](CC(C)C)NC(=O)[C@H](CCCCN)NC(=O)[C@H](Cc2c[nH]cn2)NC(=O)CNC(=O)[C@H](Cc2ccccc2)NC(=O)[C@H](Cc2c[nH]cn2)NC(=O)[C@@H](NC(=O)[C@@H](N)CCSC)CSSC[C@@H](C(N)=O)NC(=O)[C@H](CO)NC1=O [compound 20] (H-MCHFGHKLDRISC-NH2; disulfide 2-13) | – | < 5 µM |
| CC[C@H](C)[C@@H]1NC(=O)[C@H](CCCNC(=N)N)NC(=O)[C@H](CC(=O)O)NC(=O)[C@H](CC(C)C)NC(=O)[C@H](CCCCN)NC(=O)[C@H](CC(C)C)NC(=O)CNC(=O)[C@H](Cc2ccccc2)NC(=O)[C@H](Cc2c[nH]cn2)NC(=O)[C@@H](NC(=O)[C@@H](N)CCSC)CSSC[C@@H](C(=O)N[C@@H](Cc2c[nH]c3ccccc23)C(=O)N[C@@H](CCCNC(=N)N)C(N)=O)NC(=O)[C@H](CO)NC1=O [compound 21] (H-MCHFGLKLDRISCWR-NH2; disulfide 2-13) | < 15 µM | – |
| CC[C@H](C)[C@@H]1NC(=O)[C@H](CCCNC(=N)N)NC(=O)[C@H](CC(=O)O)NC(=O)[C@H](CC(C)C)NC(=O)[C@H](CCCCN)NC(=O)[C@H](CC(C)C)NC(=O)CNC(=O)[C@H](Cc2ccccc2)NC(=O)[C@H](Cc2c[nH]cn2)NC(=O)[C@@H](NC(=O)[C@@H](N)CCSC)CSSC[C@@H](C(=O)N[C@@H](CC(N)=O)C(=O)N[C@@H](CCCNC(=N)N)C(N)=O)NC(=O)[C@H](CO)NC1=O [compound 22] (H-MCHFGLKLDRISCNR-NH2; disulfide 2-13) | < 5 µM | – |
